Experimental data from patent publication US8859584B2, “TRPV1 antagonists” (AbbVie Inc., priority 2011, dated 2014).

What was measured:
human TRPV1 [1] = biological target: T1, human TRPV1 (Homo sapiens, UniProt Q8NER1); assay: Capsaicin Activation Assay (FLIPR intracellular Ca2+, recombinant HEK293 cells); assay type: cell-based; conditions: recombinant HEK293 cells expressing hTRPV1; 50 nM capsaicin; read-out: human TRPV1 capsaicin IC50
T1 construct: expressed in transfected cells

human TRPV1 [2] = biological target: T1, human TRPV1; assay: Acid Activation Assay (pH 5.0, FLIPR intracellular Ca2+, recombinant HEK293 cells); assay type: cell-based; conditions: percentage of maximal pH 5.0-induced response remaining; HEK293 hTRPV1; max concentration 37.5 μM
In short: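 HEK293 cells stably expressing recombinant hTRPV1 were loaded with calcium dye for 90-120 min at 25° C and pre-treated with compound for 3 min before a pH 5.0 (DPBS/MES) challenge. Peak FLIPR fluorescence over baseline is given as percentage of the maximal pH 5.0-induced response.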

rats [3] = assay: Sodium Iodoacetate-Induced Knee Joint Osteoarthritic Pain Model (hind limb grip force); assay type: in vivo; conditions: rat, 1 hour after administration, 20 days after sodium iodoacetate, read-out: % effect (% return to normalcy of hind limb grip force); for inhibition in vivo at 100 µmol/kg: 100 μmol/kg po single dose; for inhibition in vivo at 30 µmol/kg: 30 μmol/kg po single dose
Procedure: (v) Sodium Iodoacetate-Induced Knee Joint Osteoarthritic Pain Model
Unilateral knee joint osteoarthritis was induced in the rats by a single intra-articular (i.a.) injection of sodium iodoacetate (3 mg in 0.05 mL sterile isotonic saline) into the right knee joint cavity under light isoflurane anesthesia using a 26G needle. […] Pain behavioral assessment of hind limb grip force was conducted by recording the maximum compressive force exerted on the hind limb strain gauge setup, in a commercially available grip force measurement system (Columbus Instruments, Columbus, Ohio). The grip force data was converted to a maximum hindlimb cumulative compressive force (CFmax) (gram force)/kg body weight for each animal. The analgesic effects of test compounds were determined 20 days following the i.a. injection of sodium iodoacetate. The vehicle control group for each compound being tested was assigned 0% whereas the age matched naïve group was assigned as being 100% (normal). The % effect for each dose group was then expressed as % return to normalcy compared to the naïve group. Test compounds were administered orally in 10% ethanol/20% Tween 80/70% polyethylene glycol-400 vehicle at a volume of 2 mL/kg. The assessment of the analgesic effects of test compounds was made 1 hour following oral administration. The assessment of the analgesic effects of test compounds can be made following a single dose or following repeated administration wherein the frequency of dosing is 1 to 2 times daily. The duration of such repeated daily dosing may last for any time greater than one day. A typical duration of repeated daily dosing is about 5 days to about 12 days.

rats [4] = assay: Rat Acute Capsaicin-Induced Flinching Behavior; assay type: in vivo; conditions: 100 μmol/kg oral, capsaicin 2.5 μg one hour after compound, five minute observation
Procedure: (iv) Rat Acute Capsaicin-Induced Flinching Behavior
Rats were placed in individual observation cages. Following an acclimation period of 30 minutes, selected compounds were administered orally at a dose of 100 μmol/kg orally in a vehicle (10% ethanol/20% Tween 80/70% polyethylene glycol-400) at a volume of 2 mL/kg. One hour after administration of the compound, 2.5 μg of capsaicin in a 10 μL solution of 10% ethanol/90% hydroxypropyl-β-cyclodextrin was injected subcutaneously into the dorsal aspect of the right hind paw. The observation cage was then suspended above mirrors in order to facilitate observation. […] The number of flinching behaviors of the injured paw was recorded during the five minute observation period (Gilchrist, H. D.; Allard, B. L.; Simone, D. A.; Enhanced withdrawal responses to heat and mechanical stimuli following intraplantar injection of capsaicin in rats. Pain, 1996, 67, 179-188). The percent reduction in the number of flinching behaviors produced from oral administration of the test compounds relative to control-treated animals (% effect) is reported in Table 2.

rats [5] = assay: Rat Tail Immersion (noxious thermosensation, 55° C. water bath); assay type: in vivo; conditions: morphine 6 mg/kg i.p. in saline, relative to vehicle control
Procedure: (iii) Rat Tail Immersion Protocol:
Compounds were tested for their effects on noxious thermosensation using the tail immersion assay. Testing was performed one hour following oral administration of 100 μmol/kg of the compound in 10% ethanol/20% Tween-80/70% PEG-400 (2 mL/kg). Mophine (6 mg/kg) was administered interperitoneally (i.p.) using saline (2 mL/kg) as the vehicle. For testing, a circulating water bath was heated to 55° C. Thirty to sixty minutes post dosing, the rats were handled for a few seconds to calm them down and then cupped with their back against the testers hand at a slight angle with head facing away from tester. With rat in one hand and a 0.01 second stopwatch in the other hand, the tail was quickly immersed 6-8 cm in water bath or to a distance leaving 2-3 cm of tail out of water. The timer was started simultaneously. […] This response latency (in seconds) was recorded. Process was repeated 3 times with 3-4 minutes between readings for a final average.
For a given compound, a percent increase in the average response latency (in seconds) for tail withdrawal relative to a vehicle control was determined % increase=[(tc−tv)/tv]×100% tc=response time (in seconds) with oral dosing of compounds tv=response time (in seconds) with oral dosing of vehicle […]
Table 1 reports the % increase in tail withdrawal latency measured for the compounds tested. […]

T1 sequence (Q8NER1 whole entry): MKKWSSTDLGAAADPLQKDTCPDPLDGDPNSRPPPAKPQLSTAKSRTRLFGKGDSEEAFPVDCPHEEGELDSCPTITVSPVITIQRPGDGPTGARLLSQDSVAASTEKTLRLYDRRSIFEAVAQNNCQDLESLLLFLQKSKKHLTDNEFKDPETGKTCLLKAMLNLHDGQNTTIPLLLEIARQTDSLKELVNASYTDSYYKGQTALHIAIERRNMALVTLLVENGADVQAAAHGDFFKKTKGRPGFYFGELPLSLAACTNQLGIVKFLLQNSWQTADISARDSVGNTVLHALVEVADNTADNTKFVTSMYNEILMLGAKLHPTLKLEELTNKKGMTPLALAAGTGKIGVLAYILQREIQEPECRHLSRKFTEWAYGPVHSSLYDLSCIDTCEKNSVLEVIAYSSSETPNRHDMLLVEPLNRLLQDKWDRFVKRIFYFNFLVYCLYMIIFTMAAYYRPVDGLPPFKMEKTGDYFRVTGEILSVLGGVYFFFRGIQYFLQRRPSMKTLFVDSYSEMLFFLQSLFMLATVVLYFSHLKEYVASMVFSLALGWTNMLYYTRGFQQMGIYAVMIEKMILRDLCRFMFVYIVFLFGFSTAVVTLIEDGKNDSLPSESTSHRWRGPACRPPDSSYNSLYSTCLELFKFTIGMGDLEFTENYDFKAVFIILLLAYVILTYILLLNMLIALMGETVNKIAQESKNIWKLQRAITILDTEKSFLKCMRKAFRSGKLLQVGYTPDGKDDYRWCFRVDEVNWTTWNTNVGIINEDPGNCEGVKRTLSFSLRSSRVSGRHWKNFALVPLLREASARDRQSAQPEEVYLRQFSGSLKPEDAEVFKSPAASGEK

Compound | IC50 (human TRPV1 [1]) | human TRPV1 H+ (max % remain) (human TRPV1 [2]) | inhibition in vivo at 17 µmol/kg (rats [3]; 17 μmol/kg po single dose) | % effect (percent reduction in number of flinching behaviors relative to control-treated animals) (rats [4]) | inhibition in vivo at 100 µmol/kg (rats [3]) | inhibition in vivo at 30 µmol/kg (rats [3]) | % Increase in Tail Withdrawal Latency (rats [5])
CC1(C)C[C@@H](NC(=O)Nc2cccc3c2C[C@H](O)C3)c2ccc(Cl)c(F)c2O1 [Example 10, 1-[(4R)-7-chloro-8-fluoro-2,2-dimethyl-3,4-dihydro-2H-chromen-4-yl]-3-[(2R)-2-hydroxy-2,3-dihydro-1H-inden-4-yl]urea] | 27 nM | 74% | 49% | – | – | – | –
CC1(C)C[C@@H](NC(=O)Nc2cccc3c2C[C@@H](O)C3)c2ccc(F)c(Cl)c2O1 [Example 36, 1-[(4R)-8-chloro-7-fluoro-2,2-dimethyl-3,4-dihydro-2H-chromen-4-yl]-3-[(2S)-2-hydroxy-2,3-dihydro-1H-inden-4-yl]urea] | 26 nM | 32% | – | 71% | 46% | – | –
C[C@]1(CF)C[C@@H](NC(=O)Nc2cccc3c2C[C@H](O)C3)c2ccc(C(F)(F)F)cc2O1 [Example 43, 1-[(2R,4R)-2-(fluoromethyl)-2-methyl-7-(trifluoromethyl)-3,4-dihydro-2H-chromen-4-yl]-3-[(2R)-2-hydroxy-2,3-dihydro-1H-inden-4-yl]urea] | 18 nM | 48% | – | – | – | 38% | –
O=C(Nc1cccc2c1C[C@H](O)C2)N[C@@H]1CC(CF)(CF)Oc2cc(Cl)ccc21 [Example 4, 1-[(4R)-7-chloro-2,2-bis(fluoromethyl)-3,4-dihydro-2H-chromen-4-yl]-3-[(2R)-2-hydroxy-2,3-dihydro-1H-inden-4-yl]urea] | 40 nM | 57% | – | 54% | 67% | – | –
CC1(C)C[C@@H](NC(=O)Nc2cccc3c2C[C@H](O)C3)c2ccc(F)c(Cl)c2O1 [Example 12, 1-[(4R)-8-chloro-7-fluoro-2,2-dimethyl-3,4-dihydro-2H-chromen-4-yl]-3-[(2R)-2-hydroxy-2,3-dihydro-1H-inden-4-yl]urea] | 36 nM | 77% | – | 53% | – | – | –
O=C(Nc1cccc2c1C[C@H](O)C2)N[C@@H]1CC(CF)(CF)Oc2cc(C(F)(F)F)ccc21 [Example 7, 1-[(4R)-2,2-bis(fluoromethyl)-7-(trifluoromethyl)-3,4-dihydro-2H-chromen-4-yl]-3-[(2R)-2-hydroxy-2,3-dihydro-1H-inden-4-yl]urea] | 47 nM | 48% | – | 94% | 68% | – | –
CC1(C)C[C@@H](NC(=O)Nc2cccc3c2C[C@H](O)C3)c2ccc(F)cc2O1 [Example 5, 1-[(4R)-7-fluoro-2,2-dimethyl-3,4-dihydro-2H-chromen-4-yl]-3-[(2R)-2-hydroxy-2,3-dihydro-1H-inden-4-yl]urea] | 32 nM | 76% | – | – | 57% | – | –
CC1(C)C[C@@H](NC(=O)Nc2cccc3c2C[C@@H](O)C3)c2cccc(OC(F)(F)F)c2O1 [Example 88, 1-[(4R)-2,2-dimethyl-8-(trifluoromethoxy)-3,4-dihydro-2H-chromen-4-yl]-3-[(2S)-2-hydroxy-2,3-dihydro-1H-inden-4-yl]urea] | 16 nM | 23% | – | 69% | – | – | –
O=C(Nc1cccc2c1C[C@H](O)C2)N[C@@H]1CCOc2cc(OC(F)(F)F)ccc21 [Example 14, 1-[(2R)-2-hydroxy-2,3-dihydro-1H-inden-4-yl]-3-[(4R)-7-(trifluoromethoxy)-3,4-dihydro-2H-chromen-4-yl]urea] | 44 nM | 48% | – | – | – | 54% | –
CN1CC[C@]23c4c5ccc(O)c4O[C@H]2[C@@H](O)C=C[C@H]3[C@H]1C5 [Morphine] | – | – | – | – | – | – | +++ (greater than or equal to 25% increase)
O=C(Nc1cccc2c1C[C@H](O)C2)N[C@@H]1CCc2cc(C(F)(F)F)ccc21 [Example 40, 1-[(2R)-2-hydroxy-2,3-dihydro-1H-inden-4-yl]-3-[(1R)-5-(trifluoromethyl)-2,3-dihydro-1H-inden-1-yl]urea] | 7 nM | 30% | – | – | – | 57% | –
CC1(C)C[C@@H](NC(=O)Nc2cccc3c2C[C@H](O)C3)c2ccc(F)c(F)c2O1 [Example 9, 1-[(4R)-7,8-difluoro-2,2-dimethyl-3,4-dihydro-2H-chromen-4-yl]-3-[(2R)-2-hydroxy-2,3-dihydro-1H-inden-4-yl]urea] | 60 nM | 82% | – | 76% | 67% | – | –
CC1(C)C[C@@H](NC(=O)Nc2cccc3c2C[C@H](O)C3)c2ccc(Cl)cc2O1 [Example 13, 1-[(4R)-7-chloro-2,2-dimethyl-3,4-dihydro-2H-chromen-4-yl]-3-[(2R)-2-hydroxy-2,3-dihydro-1H-inden-4-yl]urea] | 28 nM | 62% | – | – | – | 52% | –
